According to US20240100164A1, “REPEATED PHOTODYNAMIC THERAPY USING PHOTOSENSITIZING AGENT” (Incando Therapeutics Pte. Ltd., priority 2022, published 2024):
Several values for one entry are separate records, joined by “and”; a condition that tells them apart may be missing. Identical values can stand only once.

What was measured:
glioma cells = assay: In vitro 3D hydrogel culture, PDT induced cell death of glioma cells; type: cell-based; conditions: glioma cells in 3D-hydrogel incubated with 5-ALA, illuminated with LED at 630 nm
From the text: An in vitro model of light penetration into tissue was established to determine the quantitative relationship between light penetrance PDT instigated cell death. The primary parameters for light input are illumination intensity and duration of illumination. The primary parameter for PDT instigated cell death is depth (or distance from the light source to the target treatment tissue), which directly attenuates light penetration into tissue.
To evaluate PDT for treatment of gliomas and brain cancers glioma cells were propagated in a hydrogel medium in a three-dimensional (3D) culture to mimic the cellular and optical environment of the brain. A commercial 3D culture system was used to set up the culture in a linear configuration such that a point source of light could be applied to one end of a closed culture in a cylinder form. The total cellular growth volume was 1 mm×1 mm×15 mm. A 630 nm LED light source that mimics the spectral characteristics and intensity of the any of the implantable devices disclosed herein was used to illuminate embedded glioma cells and to establish the effective PDT “kill radius.”
FIGS. 9A-9B show PDT induced cell death of glioma cells using a LED light source such as any of those disclosed herein. Glioma cells were embedded in a 3D-hydrogel, incubated with study drug 5-ALA, and illuminated with a light from a LED at 630 nm as shown in FIG. 9A. […]

C6 glioma [1] = assay: Orthotopic C6 glioma xenograft, 5-ALA uptake and conversion to PPIX in tumor; type: in vivo, Sprague Dawley rat; conditions: C6 tumor in rat striatum, histology
Protocol: C6 rat glioma cells were maintained in F12K medium (F-12K Nutrient Mixture, 1X, Gibco) supplemented with […] (Biowest), […] (Gibco), and 1% each of P/S and L/G antibiotics (Biowest) at 37° C. in a humidified incubator containing 5% CO2. Subconfluent, low passage C6 glioma cells were resuspended to single cell suspension in sterile PBS (1X, Hyclone) within two hours of xenotransplantation.
Approximately 2×10^5 cells were stereotactically injected into the striatum of rats (230-270 g, InVivos Pte Ltd) under general anaesthesia. Using a hand-held drill, a burr hole of 1 mm was drilled and cells were injected unilaterally at 3 mm lateral to Bregma and at a depth of 4 mm. Injections were conducted using borosilicate capillary glass micropipettes (A-M Systems) pulled to a tip diameter of ˜[…]. Animals were allowed to recover with daily antibiotics and analgesics for up to a week and monitored post operatively for adverse events and signs of distress in compliance with relevant animal treatment guidelines.
FIG. 10 illustrates an orthotopic xenograft model. Rat C6 glioma cells are implanted unilaterally into the striatum of Sprague Dawley rats. Tumor engraftment and growth was rapid and morphology is consistent with human high grade gliomas.

C6 glioma [2] = assay: Single application of PDT in orthotopic C6 glioma model (Ki67, TUNEL histology); type: in vivo, Sprague Dawley rat
Protocol: (§1) The implants were secured in place by suturing the overlying skin to close the surgical site. Device operation was tested briefly before closure. Six hours prior to each PDT treatment, rats were injected with 100 mg/kg 5-ALA (Synchem UG & Co. KG) prepared in sterile PBS (1X, Hyclone) via tail vein or with a vehicle control. PDT treatment was conducted under 1.5-2.5% […] isoflurane/O2 general anesthesia. Wireless powering coils such as those disclosed herein were secured to each animal's head, and each PDT treatment delivered 2.5 mW/cm2 of light over 3,600 seconds for a total fluence of 9 J/cm^2 per treatment. Any of the other treatment parameters disclosed herein may be used.
Test animals were sacrificed after 24 hours, and their brains were sectioned for histological examination. The proliferation marker Ki67 and the TUNEL assay (terminal deoxynucleotidyl transferase dUTP nick end labeling) indicative of apoptosis was used to quantify the PDT effect.
Test animals were sacrificed after 24 hours, and their brains were sectioned for histological examination. The proliferation marker Ki67 and the TUNEL assay indicative of apoptosis was used to quantify the PDT effect.

C6 glioma [3] = assay: Single vs. repeated PDT (rePDT) in orthotopic C6 glioma model, survival and tumor size; type: in vivo, Sprague Dawley rat
From the text: Animals were monitored daily for weight change and behavioral abnormalities ahead of xenograft induced mortality. Ethical termination via CO2 overdose was triggered in the following events: individual weight loss of greater than 20% in one day, extended cessation of motor behavior and loss of grooming; paralysis and lack of movement/lying on a side. After termination or death, individual rat brains were dissected and prepared for histological analysis by freezing in OCT compound (Tissue-Tek). Survival analysis was performed via the method of Kaplan-Meier.
as §1
Further experimentation was conducted to determine if repeated application of PDT treatment would have a cumulative effect on tumor growth and disease progression. […] If a single PDT treatment was at least 50% effective in destroying the tumor population, an inter-treatment interval of 2 days would maintain or diminish the tumor graft to at, or near starting levels. With this rationale in mind, PDT treatment was applied according to the schema shown in FIG. 12A with four treatments repeated every two days starting at day 4 after xenograft surgery.
On the day of treatment, animals received 5-ALA via tail vein injection and allowed to recover for 6 hours to allow uptake and expression of PPIX. PDT treatment was conducted under light general anaesthesia via halothane to reduce movement during PDT. […] This procedure was repeated at 2-day intervals for a total of four treatments.
FIG. 13 also illustrates survival curves for single vs repeat PDT treated animals. Sprague Dawley rats were implanted with c6 glioma cells and implanted with a wirelessly powered light source above the injection site as described. On treatment days (days 4, 6, 8, 10), animals were given the study drug 5-ALA as described and received PDT treatment. […] In contrast, 7 of 8 cohort 2 animals, which received PDT treatment on days 4, 6, 8, and 10, survived to day 70 at which point the experiment was stopped. Therefore, rePDT kills more of the tumor compared with a single treatment of PDT and increases survival time of the rodents.

[4] = in vivo; cited from earlier work

## Cl.NCC(=O)CCC(=O)O [5-ALA, 5-amino-4-oxo-pentanoic acid hydrochloride]
Glioma cells
  effective "kill zone" (distance from the light source): 6-8 mm
C6 glioma [1]
  PPIX signal in the tumor (conversion of 5-ALA to PPIX): Strong PPIX signal
  tumor uptake of photosensitizer: takes up the photosensitizer drug 5-ALA
C6 glioma [2]; 100 mg/kg 5-ALA tail vein 6 h before wirelessly powered light, 9 J/cm^2, sacrificed after 24 hours
  PDT effect (Ki67 and TUNEL): able to induce PDT
C6 glioma [2]; either component singly (5-ALA without light)
  PDT effect (Ki67 and TUNEL): did not show the same effect
C6 glioma [3]; 5-ALA tail vein 6 hours before PDT under general anaesthesia, four treatments at 2-day intervals
  adverse effects after PDT treatment: no adverse effects
C6 glioma [3]; Cohort 1, PDT treatment only on day 4 (n=10)
  mean survival: ~22 days
C6 glioma [3]; control animals (control treatment = single PDT session)
  time of mortality: 22 to 24 days
C6 glioma [3]; control animals (control treatment = single PDT session), necropsy
  tumor size: 125-200 mm^3
C6 glioma [3]; control animals (n=10), Kaplan-Meier
  median survival: 21 days
C6 glioma [3]; rePDT
  animals living at the end of the experiment: 89%
C6 glioma [3]; rePDT animals, histology
  tumor cells by H&E staining: trace amounts of tumor cells
C6 glioma [3]; rePDT animals, histology, vs contralateral controls
  Ki67 level: low levels of Ki67
C6 glioma [3]; rePDT vs control animals, gross estimates
  reduction in the tumor volume: > 99.5%
C6 glioma [3]; rePDT, PDT on days 4, 6, 8, 10, hydrochloride
  animals living at the end of the experiment (day 70): 8 out of 9 and 7 of 8
C6 glioma [3]; repeated PDT (rePDT), four treatments every two days from day 4
  survival (day of termination of experiment): ≥ 70 days

## C=CC1=C(C)c2cc3[nH]c(cc4nc(cc5[nH]c(cc1n2)c(C)c5CCC(=O)O)C(CCC(=O)O)=C4C)c(C)c3C=C [PPIX, Protoporphyrin IX]
[4]
  systemic clearance time of 5-ALA-induced PPIX: ≤ 24 h
